Experimental data published in US20100150985A1, “Dental Implant, Endodontic Instrument, and Dental Filling Material Coated with a Peptide-Based Antimicrobial and Methods of Using and Making the Same” (priority 2008, published 2010).

Legend:
Staphylococcus aureus = experiment: in-vitro assay of immobilized peptide on 316L stainless steel pins; assay type: cell-based; details: peptide covalently bonded to parylene coated stainless steel pins, after ethylene oxide sterilization; data not shown
Excerpt: Medical standard alloy 316L stainless steel pins were coated with an antimicrobial peptide layer to determine the efficacy of an immobilized antimicrobial peptide. The pins were coated with a tie layer. A parylene coating containing a reactive molecule specific for the N-terminus region of the peptide (“Photopolymer”) was then applied over the tie layer. The peptide WLBU-2 (SEQ ID NO. 179) was applied to the parylene coating and exposed to UV light to facilitate covalent bonding of the peptide with the parylene coating. Parylene coated stainless steel pins and non-coated stainless steel pins were used as controls. All samples and controls were subjected to ethylene oxide sterilization. The coated samples were placed in 75% relative humidity overnight.

[1] = retention of antimicrobial/biological activity after sterilization; details: peptide coated on a substrate, ethylene oxide sterilization
Excerpt: In a useful embodiment of the present invention, the antimicrobial peptides may retain antibacterial activity after a dental device coated with the antimicrobial, peptide is sterilized.

RRWVRRVRRVWRRVVRVVRRWVVRR (RRWVRRVRRVWRRVVRVVRRWVRR; Artificial peptide derived from HIV-1) [WLBU-2, Lytic Base Unit peptide]
efficacy of immobilized antimicrobial peptide (Staphylococcus aureus): efficacy against Staphylococcus aureus
antimicrobial activity after sterilization [1]: retained antimicrobial activity
